Measured values from ChEMBL document CHEMBL1201862, “PubChem BioAssay data set” (2004).
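Dose response: 5 concentrations. Exposure: 48 h. Format: 96-well plates. Endpoint: linear interpolation; highest concentration if not reached. GI50 = concentration required for 50% inhibition of growth.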 Activity calls are given as the source filed them. No stated cut-off is given here; in the data, active = GI50 up to about 1.1 µM and inactive = higher.

How the values were obtained:
Experiment in all cases: growth of human tumour cells (NCI), 48 h
A549 = test system: A549
CAKI-1 = test system: CAKI-1
CCRF-CEM = test system: CCRF-CEM
EKVX = test system: EKVX
HCC 2998 = test system: HCC 2998
HL-60 = test system: HL-60
MDA-MB-435 = test system: MDA-MB-435
MDA-N = test system: MDA-N
Malme-3M = test system: Malme-3M
NCI-H460 = test system: NCI-H460
NCI-H522 = test system: NCI-H522
OVCAR-5 = test system: OVCAR-5
OVCAR-8 = test system: OVCAR-8
SF-539 = test system: SF-539
SK-MEL-2 = test system: SK-MEL-2
SN12C = test system: SN12C
SNB-75 = test system: SNB-75
T47D = test system: T47D
U-251 = test system: U-251

SMILES	GI50 (A549)	GI50 (CAKI-1)	GI50 (CCRF-CEM)	GI50 (EKVX)	GI50 (HCC 2998)	GI50 (HL-60)	GI50 (MDA-MB-435)	GI50 (MDA-N)	GI50 (Malme-3M)	GI50 (NCI-H460)	GI50 (NCI-H522)	GI50 (OVCAR-5)	GI50 (OVCAR-8)	GI50 (SF-539)	GI50 (SK-MEL-2)	GI50 (SN12C)	GI50 (SNB-75)	GI50 (T47D)	GI50 (U-251)
CN(C)CCOc1ccc(-c2c(Oc3ccc(Cl)cc3)c(=O)oc3ccccc23)cc1	4.97 µM (inactive)	12.9 µM (inactive)	4.41 µM (inactive)	12.3 µM (inactive)	3.15 µM (inactive)	5.61 µM (inactive)	2.67 µM (inactive)	2.61 µM (inactive)	5.83 µM (inactive)	7.35 µM (inactive)	8.75 µM (inactive)	15.8 µM (inactive)	> 24.5 µM (inactive)	9.84 µM (inactive)	7.59 µM (inactive)	13.7 µM (inactive)	6.56 µM (inactive)	8.87 µM (inactive)	3.64 µM (inactive)
COc1c(-c2ccc3c(c2)OCO3)oc2cc3c(c(OC)c2c1=O)OCO3 [MELITERNATIN]	20.2 µM (inactive)	23.8 µM (inactive)	30.8 µM (inactive)	24.5 µM (inactive)	26.9 µM (inactive)	1.09 µM (active)	17.6 µM (inactive)	18.5 µM (inactive)	24.8 µM (inactive)	14.4 µM (inactive)	21.5 µM (inactive)	29.8 µM (inactive)	19.1 µM (inactive)	16.3 µM (inactive)	19.6 µM (inactive)	16 µM (inactive)	16.3 µM (inactive)	16.2 µM (inactive)	16.6 µM (inactive)
O=C1C(C(c2ccccc2)N2CCOCC2)=C(O)C(c2ccccc2)N1c1ccccc1 (stereo not drawn)	> 10 µM (inactive)	> 10 µM (inactive)	> 10 µM (inactive)	> 10 µM (inactive)	> 10 µM (inactive)	> 10 µM (inactive)	> 10 µM (inactive)	> 10 µM (inactive)	3.05 µM (inactive)	> 10 µM (inactive)	> 10 µM (inactive)	> 10 µM (inactive)	> 10 µM (inactive)	> 10 µM (inactive)	> 10 µM (inactive)	> 10 µM (inactive)	3.58 µM (inactive)	> 10 µM (inactive)	> 10 µM (inactive)
CN(C)CCOc1ccc2c(c1)C/C(=C/c1ncc([N+](=O)[O-])n1C)C2=O	1.17 µM (inactive)	2.64 µM (inactive)	2.7 µM (inactive)	3.61 µM (inactive)	2.03 µM (inactive)	3.25 µM (inactive)	2.99 µM (inactive)	3.94 µM (inactive)	1.94 µM (inactive)	0.508 µM (active)	0.918 µM (active)	3.51 µM (inactive)	1.43 µM (inactive)	3.97 µM (inactive)	1.67 µM (inactive)	2.58 µM (inactive)	2.28 µM (inactive)	6.03 µM (inactive)	3.51 µM (inactive)
COC(=O)c1c(OC(C)=O)ccc2c1c1c(OC(C)=O)c3ccccc3c(OC(C)=O)c1n2C	29.9 µM (inactive)	17.8 µM (inactive)	23.2 µM (inactive)	10.1 µM (inactive)	23.7 µM (inactive)	22.1 µM (inactive)	37.8 µM (inactive)	32.2 µM (inactive)	37.7 µM (inactive)	26.4 µM (inactive)	12.9 µM (inactive)	38.1 µM (inactive)	22.6 µM (inactive)	20.7 µM (inactive)	17.3 µM (inactive)	53.7 µM (inactive)	2.06 µM (inactive)	12.3 µM (inactive)	24.8 µM (inactive)
O=C1/C(=C/c2cccnc2)C(n2cccc2)c2c(Br)sc(Br)c21 (stereo not drawn)	15.6 µM (inactive)	2.59 µM (inactive)	1.93 µM (inactive)	2 µM (inactive)	0.916 µM (active)	1.83 µM (inactive)	1.73 µM (inactive)	2.05 µM (inactive)	3.01 µM (inactive)	4.16 µM (inactive)	6.07 µM (inactive)	15 µM (inactive)	2.1 µM (inactive)	4.26 µM (inactive)	2.26 µM (inactive)	3.94 µM (inactive)	2 µM (inactive)	2.82 µM (inactive)	1.7 µM (inactive)
Cc1cc2oc(C)c(S(=O)(=O)NC(=O)Nc3ccc(Cl)cc3)c(=O)c2c(=O)o1	> 100 µM (inactive)	> 100 µM (inactive)	> 100 µM (inactive)	> 100 µM (inactive)	> 100 µM (inactive)	> 100 µM (inactive)	> 100 µM (inactive)	> 100 µM (inactive)	> 100 µM (inactive)	> 100 µM (inactive)	> 100 µM (inactive)	> 100 µM (inactive)	> 100 µM (inactive)	> 100 µM (inactive)	> 100 µM (inactive)	> 100 µM (inactive)	> 100 µM (inactive)	> 100 µM (inactive)	> 100 µM (inactive)
